Laboratory results from patent US12083187B2, “Method of treatment for solid tumors containing hypoxia and/or stroma features” (Wayne State University, priority 2017, dated 2024).
Values joined by “and” are separate entries in the source; they are usually repeats but may differ in a detail not shown here. Equal values may be shown once.

How the values were obtained:
[1] = cited from earlier work
A498 wild type = conditions: for Combination Index (Cl) Drug + CFM4.16: A498 wild type, non-encapsulated drug combined with non-encapsulated CFM4.16, MTT, CompuSyn, CI<1 synergistic
Protocol: (§1) Cell Viability Assays. […] After treatment, an MTT assay was performed.
(§2) In vitro cytotoxicity assay. […] First, the cells were seeded in a 96-well multiwell plate at a density of 5×10^3 cells per well. The cells were allowed to grow in fresh culture media overnight. CAIX-positive and CAIX-negative cells were generated by parallel treatments with hypoxia and normoxia as described above. After 20 h, the medium was removed, and the wells were washed twice with PBS. […] After treatment, an MTT assay was performed.
(§3) RCC is very difficult to treat as the cells are mostly resistant to many current therapies. […] First, we determined cytotoxicity of individual drugs C4.16, Sor, and Evr in both A498. […] In order to understand the safety of combination therapy, we performed the hemolysis assay using CAIX-C4.16 and combination of CAIX-C4.16+Sor.

[2] = system: A498 Everolimus resistant type; conditions: for Combination Index (Cl) Drug + CFM4.16: A498 Everolimus resistant type, drug combined with CFM4.16, MTT, CompuSyn
Protocol: Generation of Everolimus-resistant RCC cells.
as §1, §2, §3

[3] = system: A498 RCC cell-derived xenografts; test: A498 RCC cell-derived xenograft efficacy study in SCID mice; type: in vivo, mouse; conditions: intravenous, 30 mg/kg/day
Protocol: A dose of 30 mg/kg/day of this preparation was administered by intravenous (tail vein) injections for a total dose of 482 mg/kg in SCID mice bearing […]. […] In addition, after the completion of the animal experiment, tumors from treatment and control groups were dissected, and cryosectioned for imaging of apoptotic signs using TUNEL (Terminal deoxynucleotidyl transferase dUTP nick end labeling) and CARP-1.
For efficacy studies, after a suitable period of acclimation, a suspension of 1×10^6 A498 RCC cells in 200 μl of serum-free Hank's balanced salt solution were subcutaneously implanted in flanks of each animal using a 27-gauge needle. Tumors were allowed to grow unperturbed for 10-14 days. When tumors became palpable (200 mm^3), the mice were randomly assigned to treatment or control groups of eight animals each. […] The end points for assessing antitumor activity consisted of tumor weight, tumor growth inhibition (% T/C), and tumor cell kill Log10. Tumor weight (mg)=(A×B2)/2 where A and B are the tumor length and width (in mm), respectively. Tumor growth inhibition (T/C) was the median tumor weight in the treated group (T) when the median tumor weight in the control group reached 750 mg. Results were expressed as percentage. […] Tumor volumes were calculated by the modified ellipsoidal formula. […]

AKT activity (pAKT) = test: Western blot of AKT activation in WT and Evr-res A498 cells; type: cell-based, human; conditions: vs untreated control
Protocol: Western Blot analysis. For protein expression analysis, western blot experiments were conducted. The RCC cells were treated with DMSO/Vehicle (Control) for the indicated doses and times of the noted compound, and were lysed to prepare protein extracts. Cells were harvested and lysed in RIPA buffer (50 mM Tris-HCl, pH 8.0, 150 mM sodium chloride, 1.0% NP-40, 0.5% sodium deoxycholate, 0.1% sodium dodecyl sulfate (SDS), and 0.1% of protease inhibitor cocktail) for 20 min at 4° C. The lysates were then centrifuged at 14,000 rpm at 4° C. for 15 min to remove debris. The protein concentrations of whole cell lysates were then determined using the Protein Assay Kit. Supernatant proteins, 50 μg from each sample, were separated by SDS-10% polyacrylamide gel electrophoresis (SDS-PAGE) and transferred to polyvinylidene difluoride (PVDF) membrane (Bio-Rad, Hercules, CA) by standard procedures. The membranes were hybridized with primary antibodies followed by incubation with appropriate secondary antibodies. […]
Mechanism of C4.16 for overcoming drug resistance. In this study, we determined how induction of apoptosis and inhibition of oncogenic survival signaling would reinforce the synergistic cell killing and reversal of drug resistance in VVT and Evr-res A498 cells when treated with CA IX C4.16+Sor. […]

caspase-3/7 = test: Caspase 3/7 assay in Evr-res A498 cells; type: cell-based, human; conditions: RCC cells, vs control
OUK262 wild type = test: MTT / CompuSyn combination index in OUK262 wild type RCC cells; conditions: drug combined with CFM4.16
Protocol: (§4) Cell Viability Assays. […] First, 5×10^3 cells were seeded in a 96-well plate in triplicate and allowed to grow in fresh culture media for another 24 h. Cells were then treated with respective agents for the noted doses and times. Control cells were treated with 0.1% DMSO in culture medium. After treatment, an MTT assay was performed. Briefly, 20 μL of 1 mg/ml of MTT was added to each well and cells were incubated for 2-4 h at 37° C. MTT was removed, and the resulting formazan products were dissolved by adding 50 μl DMSO/well followed by colorimetric analysis using a multi-label plate reader at 570 nm (Victor3; PerkinElmer, Wellesley, MA).
(§5) All the clinically drugs were treated in combination with CFM4.16 with a range of concentrations using MTT assay in the specified RCC cell line, and the data were feed to CompuSyn program to obtain the CI-value.

[4] = system: OUK262 Everolimus resistant type; test: MTT / CompuSyn combination index in Everolimus resistant OUK262 RCC cells; conditions: drug combined with CFM4.16
Protocol: as §4, §5

Evr-res A498 tumor = conditions: mouse, in vivo
Protocol: In Vivo Imaging Studies. S0456 a reactive near-infra-red fluorochrome, was covalently linked with PLNPs and used for in vivo near-IR optical imaging of selected nanoparticle formulations. The formulations were injected intravenously in female nude mice bearing tumor xenografts. The distribution and tumor targeted delivery were imaged by tracking the fluorescent output of IRDye 800® with in vivo Imaging System (see FIG. 11).
PDX animal imaging and bio-distribution of CAIX-targeted-nanoformulation. A CAIX-targeted-nanomicelles conjugated with Near-infrared dye was administered directly via iv administration to 5-weeks old NCR SCID mice and the distribution behavior in the mice was monitored at different time points after administration using an in vivo imaging system.
To ascertain core penetrating ability of CA IX-S0456 in a drug resistant tumor model, we performed three transverse sectioning of the isolated tumor after the bio-D study.

RCC = conditions: cited from earlier work; for progression free survival: RCC, clinical

## COc1cc2nccc(Oc3ccc(NC(=O)C4(C(=O)Nc5ccc(F)cc5)CC4)cc3)c2cc1OC [CB, cabozantinib]
[1]; mouse, in vivo
  well tolerated dose: 60 mg/kg

## O=C1N(Cc2ccccc2Cl)c2ccccc2C12NN=C(c1cccc(Cl)c1)S2 (stereo not drawn) [CFM-4.16]
A498 wild type
  growth inhibition (in vitro cytotoxicity, comparison): more effective in inhibiting growth of WT and Evr-res A498 compared with Sor
[2]
  growth inhibition (in vitro cytotoxicity, comparison): more effective in inhibiting growth of WT and Evr-res A498 compared with Sor
[3]
  tumor growth / tumor size: failed to inhibit tumor growth
AKT activity (pAKT)
  AKT activity (pAKT): downregulation of pAKT
caspase-3/7
  caspase-3/7 activity: induced caspase-3/7 activation
[1]; 30 mg/kg/day iv, total dose 482 mg/kg, DMSO/cremophor preparation, SCID mice
  loss in body weight: < 2% and 1.6%
[1]; mouse, in vivo
  MTD: 30 mg/kg

## CC(C)(C)c1nc(-c2cccc(NS(=O)(=O)c3c(F)cccc3F)c2F)c(-c2ccnc(N)n2)s1 [Dabrafenib]
A498 wild type
  Combination Index (Cl) Drug + CFM4.16: 0.1385
[2]
  Combination Index (Cl) Drug + CFM4.16: 0.677
OUK262 wild type
  Combination Index (Cl) Drug + CFM4.16: 0.234
[4]
  Combination Index (Cl) Drug + CFM4.16: 0.587

## CO[C@H]1C[C@@H]2CC[C@@H](C)[C@@](O)(O2)C(=O)C(=O)N2CCCC[C@H]2C(=O)O[C@H]([C@H](C)C[C@@H]2CC[C@@H](OCCO)[C@H](OC)C2)CC(=O)[C@H](C)/C=C(\C)[C@@H](O)[C@@H](OC)C(=O)[C@H](C)C[C@H](C)/C=C/C=C/C=C/1C [Everolimus]
A498 wild type
  Combination Index (Cl) Drug + CFM4.16: 0.7
[2]
  growth inhibition (in vitro cytotoxicity, comparison): did not inhibit growth
  Combination Index (Cl) Drug + CFM4.16: 1.3
OUK262 wild type
  Combination Index (Cl) Drug + CFM4.16: 0.67
[4]
  Combination Index (Cl) Drug + CFM4.16: 1.45

## O=C(c1cc(Cc2n[nH]c(=O)c3ccccc23)ccc1F)N1CCN(C(=O)C2CC2)CC1 [Olaparip]
A498 wild type
  Combination Index (Cl) Drug + CFM4.16: 1.0978
[2]
  Combination Index (Cl) Drug + CFM4.16: 1.121
OUK262 wild type
  Combination Index (Cl) Drug + CFM4.16: 0.9878
[4]
  Combination Index (Cl) Drug + CFM4.16: 1.312

## CC(=O)c1c(C)c2cnc(Nc3ccc(N4CCNCC4)cn3)nc2n(C2CCCC2)c1=O [Palbociclib]
A498 wild type
  Combination Index (Cl) Drug + CFM4.16: 0.7
[2]
  Combination Index (Cl) Drug + CFM4.16: 0.971
OUK262 wild type
  Combination Index (Cl) Drug + CFM4.16: 0.897
[4]
  Combination Index (Cl) Drug + CFM4.16: 1.0023

## CC1(C)C(/C=C/C2=C(Cl)C(=C/C=C3/N(CCCCS(=O)(=O)[O-])c4ccc(S(=O)(=O)[O-])cc4C3(C)C)/CCC2)=[N+](CCCCS(=O)(=O)[O-])c2ccc(S(=O)(=O)[O-])cc21.[Na+].[Na+].[Na+] [S0456]
Evr-res A498 tumor
  tumor accumulation / selectivity: poor tumor accumulation with high off-target activity

## CNC(=O)c1cc(Oc2ccc(NC(=O)Nc3ccc(Cl)c(C(F)(F)F)c3)cc2)ccn1 [Sorafenib]
AKT activity (pAKT)
  AKT activity (pAKT): downregulation of pAKT
RCC
  progression free survival: 12 months

## Nivolumab: immune-check point inhibitor (anti-PD1) approved for RCC
RCC; RCC patients
  response rate, higher than Evr: 5%
RCC
  progression free survival: 32 months
